{"source": "ChEMBL document CHEMBL4024702", "about": "“Covalent Modifiers: A Chemical Perspective on the Reactivity of α,β-Unsaturated Carbonyls with Thiols via Hetero-Michael Addition Reactions” (J Med Chem, 2017)", "key": {"[1]": {"tested_on": "rhinovirus B14", "assay": "Irreversible inhibition of human rhinovirus serotype 14 3C protease assessed as ratio of Kobs/I by spectrofluorimetric analysis"}, "[2]": {"assay": "Cytotoxicity against human H1HeLa cells after 2 days by XTT/PMS dye based assay", "type": "cell-based, H1-HeLa"}, "[3]": {"tested_on": "rhinovirus B14", "assay": "Antiviral activity against rhinovirus serotype 14 infected in human H1HeLa cells after 2 days by XTT/PMS dye based assay", "type": "functional, cell-based", "conditions": "Rhinovirus B, H1-HeLa, 48 h"}, "[4]": {"assay": "Glutathione reactivity of the compound in DMSO and phosphate buffer assessed as second order rate constant for adduct formation"}, "[5]": {"assay": "Cysteamine reactivity of the compound in TRIS-HCL assessed as second order rate constant at 40 uM and pH 7.4"}, "[6]": {"assay": "Glutathione reactivity of the compound in PBS buffer assessed as rate constant for 1,4-adduct formation at pH 7.4"}, "[7]": {"assay": "Cysteine reactivity of the compound assessed as second order rate constant by 1H NMR analysis"}, "[8]": {"assay": "Thiol reactivity of the compound in PBS/DMSO buffer assessed as pseudo-first order rate constant for adduct formation"}, "[9]": {"assay": "Thiol reactivity of the compound in DMSO/PBS buffer assessed as adduct formation by measuring half life of parent compound by 1H NMR analysis", "type": "physicochemical"}}, "data": [{"molecule": "CCNC(=O)/C=C/[C@H](CCC(N)=O)NC(=O)[C@H](Cc1ccccc1)NC(=O)[C@H](CC(C)C)NC(=O)OCc1ccccc1", "values": [{"measurement": "Ratio", "setting": "[1]", "value": 350, "unit": "M⁻¹ s⁻¹"}, {"measurement": "CC50 at 48 h", "setting": "[2]", "value": "> 320", "unit": "µM"}, {"measurement": "EC50", "setting": "[3]", "value": "> 320", "unit": "µM"}]}, {"molecule": "CCCCC/C=C/C=O", "values": [{"measurement": "K", "setting": "[4]", "value": 18, "unit": "M⁻¹ s⁻¹"}]}, {"molecule": "CC(C)C[C@H](NC(=O)OCc1ccccc1)C(=O)N[C@@H](Cc1ccccc1)C(=O)N[C@H](/C=C1\\CCOC1=O)CCC(N)=O", "values": [{"measurement": "Ratio", "setting": "[1]", "value": 10900, "unit": "M⁻¹ s⁻¹"}, {"measurement": "CC50 at 48 h", "setting": "[2]", "value": "> 320", "unit": "µM"}, {"measurement": "EC50", "setting": "[3]", "value": 5.2, "unit": "µM"}]}, {"molecule": "CCOC(=O)C(C(=O)c1ccc(OC)cc1OC)C(SCCN)c1ccc(OC)c(OC)c1", "note": "(stereo not drawn)", "values": [{"measurement": "K", "setting": "[5]", "value": 0.28, "unit": "M⁻¹ s⁻¹"}]}, {"molecule": "C=C(C)C=O", "values": [{"measurement": "K", "setting": "[4]", "value": 203, "unit": "M⁻¹ s⁻¹"}]}, {"molecule": "CCOC(=O)/C(C)=C/[C@H](CCC(N)=O)NC(=O)[C@H](Cc1ccccc1)NC(=O)[C@H](CC(C)C)NC(=O)OCc1ccccc1", "values": [{"measurement": "Ratio", "setting": "[1]", "value": 7300, "unit": "M⁻¹ s⁻¹"}, {"measurement": "CC50 at 48 h", "setting": "[2]", "value": "> 320", "unit": "µM"}, {"measurement": "EC50", "setting": "[3]", "value": 3, "unit": "µM"}]}, {"molecule": "COc1ccc(C(C(=O)c2ccc(OC)cc2OC)C(SCCN)c2ccc(OC)c(OC)c2)cc1", "note": "(stereo not drawn)", "values": [{"measurement": "K", "setting": "[5]", "value": 0.0086, "unit": "M⁻¹ s⁻¹"}]}, {"molecule": "COc1ccc(C(=O)C(C(=O)O)C(SCCN)c2ccc(OC)c(OC)c2)c(OC)c1", "note": "(stereo not drawn)", "values": [{"measurement": "K", "setting": "[5]", "value": 0.0037, "unit": "M⁻¹ s⁻¹"}]}, {"molecule": "C/C=C/C(C)=O", "values": [{"measurement": "K", "setting": "[4]", "value": 26.7, "unit": "M⁻¹ s⁻¹"}]}, {"molecule": "N[C@@H](CCC(=O)N[C@@H](CSCCC=O)C(=O)NCC(=O)O)C(=O)O", "values": [{"measurement": "K", "setting": "[6]", "value": 120, "unit": "M⁻¹ s⁻¹"}]}, {"molecule": "COC(=O)/C=C/[C@H](CCC(N)=O)NC(=O)[C@H](Cc1ccccc1)NC(=O)[C@H](CC(C)C)NC(=O)OCc1ccccc1", "values": [{"measurement": "Ratio", "setting": "[1]", "value": 20000, "unit": "M⁻¹ s⁻¹"}, {"measurement": "CC50 at 48 h", "setting": "[2]", "value": "> 320", "unit": "µM"}, {"measurement": "EC50", "setting": "[3]", "value": 1.3, "unit": "µM"}]}, {"molecule": "C=CC(=O)OCCCC", "values": [{"measurement": "K", "setting": "[4]", "value": 8.54, "unit": "M⁻¹ s⁻¹"}]}, {"molecule": "NC(=O)CI", "values": [{"measurement": "K", "setting": "[7]", "value": 25, "unit": "M⁻¹ s⁻¹"}]}, {"molecule": "C/C=C/C(=O)OC", "values": [{"measurement": "K", "setting": "[4]", "value": 0.164, "unit": "M⁻¹ s⁻¹"}]}, {"molecule": "CC(C)C[C@H](NC(=O)OCc1ccccc1)C(=O)N[C@@H](Cc1ccccc1)C(=O)N[C@H](/C=C/C(=O)N1CCOC1=O)CCC(N)=O", "values": [{"measurement": "Ratio", "setting": "[1]", "value": 600000, "unit": "M⁻¹ s⁻¹"}, {"measurement": "CC50 at 48 h", "setting": "[2]", "value": "> 100", "unit": "µM"}, {"measurement": "EC50", "setting": "[3]", "value": 1.6, "unit": "µM"}]}, {"molecule": "CC(CC=O)SC[C@H](NC(=O)CC[C@H](N)C(=O)O)C(=O)NCC(=O)O", "note": "(stereo partly drawn)", "values": [{"measurement": "K", "setting": "[6]", "value": 0.78, "unit": "M⁻¹ s⁻¹"}]}, {"molecule": "C=C(C=O)CC", "values": [{"measurement": "K", "setting": "[4]", "value": 59.4, "unit": "M⁻¹ s⁻¹"}]}, {"molecule": "CC(C)C[C@H](NC(=O)OCc1ccccc1)C(=O)N[C@@H](Cc1ccccc1)C(=O)N[C@H](/C=C/C(=O)n1ccc2ccccc21)CCC(N)=O", "values": [{"measurement": "Ratio", "setting": "[1]", "value": 53000, "unit": "M⁻¹ s⁻¹"}, {"measurement": "CC50 at 48 h", "setting": "[2]", "value": 29, "unit": "µM"}, {"measurement": "EC50", "setting": "[3]", "value": 1.8, "unit": "µM"}]}, {"molecule": "C=CC(=O)Nc1ccccc1", "values": [{"measurement": "K", "setting": "[8]", "value": 1.6, "unit": "×10⁻⁴ /s"}]}, {"molecule": "CC(C)=CC=O", "values": [{"measurement": "K", "setting": "[4]", "value": 1.71, "unit": "M⁻¹ s⁻¹"}]}, {"molecule": "COC(=O)/C=C\\[C@H](CCC(N)=O)NC(=O)[C@H](Cc1ccccc1)NC(=O)[C@H](CC(C)C)NC(=O)OCc1ccccc1", "values": [{"measurement": "Ratio", "setting": "[1]", "value": 2400, "unit": "M⁻¹ s⁻¹"}, {"measurement": "CC50 at 48 h", "setting": "[2]", "value": "> 320", "unit": "µM"}, {"measurement": "EC50", "setting": "[3]", "value": 4.2, "unit": "µM"}]}, {"molecule": "C=CC#CC(C)=O", "values": [{"measurement": "K", "setting": "[4]", "value": 80, "unit": "M⁻¹ s⁻¹"}]}, {"molecule": "CCCCC/C=C/C(=O)OC", "values": [{"measurement": "K", "setting": "[4]", "value": 0.785, "unit": "M⁻¹ s⁻¹"}]}, {"molecule": "N[C@@H](CSCCC=O)C(=O)O", "values": [{"measurement": "K", "setting": "[6]", "value": 220, "unit": "M⁻¹ s⁻¹"}]}, {"molecule": "COC(=O)/C=C/CNC(=O)c1ccc([N+](=O)[O-])cc1", "values": [{"measurement": "K", "setting": "[8]", "value": 5.9, "unit": "×10⁻⁴ /s"}]}, {"molecule": "CC(=O)C=C(C)C", "values": [{"measurement": "K", "setting": "[4]", "value": 0.208, "unit": "M⁻¹ s⁻¹"}]}, {"molecule": "COc1cc(/C=C/C(=O)CC(=O)/C=C/c2ccc(O)c(OC)c2)ccc1O", "values": [{"measurement": "K", "setting": "[5]", "value": 0.066, "unit": "M⁻¹ s⁻¹"}]}, {"molecule": "C=CC(=O)Nc1ccc([N+](=O)[O-])cc1", "values": [{"measurement": "K", "setting": "[8]", "value": 8, "unit": "×10⁻² /s"}]}, {"molecule": "CC(C)C[C@H](NC(=O)OCc1ccccc1)C(=O)N[C@@H](Cc1ccccc1)C(=O)N[C@H](/C=C/C(=O)N1CC=CC1)CCC(N)=O", "values": [{"measurement": "Ratio", "setting": "[1]", "value": 8500, "unit": "M⁻¹ s⁻¹"}, {"measurement": "CC50 at 48 h", "setting": "[2]", "value": 44, "unit": "µM"}, {"measurement": "EC50", "setting": "[3]", "value": "> 44", "unit": "µM"}]}, {"molecule": "COc1ccc(C(=O)C(c2ccc([N+](=O)[O-])cc2)C(SCCN)c2ccc(OC)c(OC)c2)c(OC)c1", "note": "(stereo not drawn)", "values": [{"measurement": "K", "setting": "[5]", "value": 0.29, "unit": "M⁻¹ s⁻¹"}]}, {"molecule": "CC(C)C[C@H](NC(=O)OCc1ccccc1)C(=O)N[C@@H](Cc1ccccc1)C(=O)N[C@H](/C=C/C(=O)c1ccccc1)CCC(N)=O", "values": [{"measurement": "Ratio", "setting": "[1]", "value": 500000, "unit": "M⁻¹ s⁻¹"}, {"measurement": "CC50 at 48 h", "setting": "[2]", "value": 16, "unit": "µM"}, {"measurement": "EC50", "setting": "[3]", "value": 4, "unit": "µM"}]}, {"molecule": "CC(C)C[C@H](NC(=O)OCc1ccccc1)C(=O)N[C@@H](Cc1ccccc1)C(=O)N[C@H](/C=C/C(=O)N(C)C)CCC(N)=O", "values": [{"measurement": "Ratio", "setting": "[1]", "value": 1300, "unit": "M⁻¹ s⁻¹"}, {"measurement": "CC50 at 48 h", "setting": "[2]", "value": "> 100", "unit": "µM"}, {"measurement": "EC50", "setting": "[3]", "value": 56, "unit": "µM"}]}, {"molecule": "CCCC/C=C/C=C/C=O", "values": [{"measurement": "K", "setting": "[4]", "value": 3.49, "unit": "M⁻¹ s⁻¹"}]}, {"molecule": "CCOC(=O)/C(F)=C/[C@H](CCC(N)=O)NC(=O)[C@H](Cc1ccccc1)NC(=O)[C@H](CC(C)C)NC(=O)OCc1ccccc1", "values": [{"measurement": "Ratio", "setting": "[1]", "value": 60, "unit": "M⁻¹ s⁻¹"}, {"measurement": "CC50 at 48 h", "setting": "[2]", "value": "> 320", "unit": "µM"}, {"measurement": "EC50", "setting": "[3]", "value": "> 320", "unit": "µM"}]}, {"molecule": "O=C(/C=C/c1ccccc1)c1ccccc1", "values": [{"measurement": "K", "setting": "[5]", "value": 3, "unit": "M⁻¹ s⁻¹"}]}, {"molecule": "COc1ccc(C(=O)C(C)C(SCCN)c2ccc(OC)c(OC)c2)c(OC)c1", "note": "(stereo not drawn)", "values": [{"measurement": "K", "setting": "[5]", "value": 0.0075, "unit": "M⁻¹ s⁻¹"}]}, {"molecule": "C=CC(=O)OCC", "values": [{"measurement": "K", "setting": "[4]", "value": 10.6, "unit": "M⁻¹ s⁻¹"}]}, {"molecule": "CC(CC=O)SC[C@H](N)C(=O)O", "note": "(stereo partly drawn)", "values": [{"measurement": "K", "setting": "[6]", "value": 8.9, "unit": "M⁻¹ s⁻¹"}]}, {"molecule": "CC(O)C(CC1NC(C(=O)O)CS1)SC[C@H](C)C(=O)O", "note": "(stereo partly drawn)", "values": [{"measurement": "K", "setting": "[6]", "value": 1.1, "unit": "M⁻¹ s⁻¹"}]}, {"molecule": "O=C/C=C/c1ccccc1", "values": [{"measurement": "K", "setting": "[5]", "value": 0.64, "unit": "M⁻¹ s⁻¹"}]}, {"molecule": "N#CC(c1ccncc1)C(SCCO)C1CC1", "note": "(stereo not drawn)", "values": [{"measurement": "t1/2", "setting": "[9]", "value": 11.9, "unit": "min"}]}]}
